The record followed here is patent publication US11970497B2, “Tricyclic AKR1C3 dependent KARS inhibitors” (Novartis AG, priority 2019, dated 2024).

A value given as a limit tells only on which side of the number the result lay.

What all share (assay): Expanded lung cancer cell line proliferation assay
What all share (assay type): cell-based

In assay [1] the test system is NCI-H1792. As to conditions: Homo sapiens; NCI-H1792, 72 h, average of PrestoBlue and Cell Titer Glo; AKR1C3 418.6 TPM; read-out: Absolute Qualified AC50. The method, boiled down: (§1)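 Activity was scored after 72 h of compound treatment, with AC50 derived from dose-response curves normalized between 0.3% DMSO and 30 μM MG132 controls. Top final concentration was 1 μM across 8 points, and each value averages PrestoBlue and CellTiter-Glo results.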

In assay [2] the test system is NCI-H1568. As to conditions: NCI-H1568, 72 h, average of PrestoBlue and Cell Titer Glo; AKR1C3 2.8 TPM; read-out: Absolute Qualified AC50. The method in brief:
as §1
For orientation: ATP-based viability assays read luminescence as a measure of living cells.

Assay [3] has as its system HLC-1. As to conditions: HLC-1, 72 h, average of PrestoBlue and Cell Titer Glo; AKR1C3 expression: no data available; read-out: Absolute Qualified AC50. The method in brief: as §1
Assay [4] has as its system NCI-H322. The note with it: NCI-H322, 72 h, average of PrestoBlue and Cell Titer Glo; AKR1C3 21 TPM; read-out: Absolute Qualified AC50. The method, boiled down: as §1
For assay [5], the system named is NCI-H1838. As to conditions: Homo sapiens; NCI-H1838, 72 h, average of PrestoBlue and Cell Titer Glo; AKR1C3 1.8 TPM; read-out: Absolute Qualified AC50. The method, boiled down:
as §1

Assay [6] deals with LCLC-97TM1. The note with it: Homo sapiens; LCLC-97TM1, 72 h, average of PrestoBlue and Cell Titer Glo; AKR1C3 1.9 TPM; read-out: Absolute Qualified AC50. The method, boiled down:
as §1

The subject of assay [7] is VMRC-LCD. The note with it: 72 h, average of PrestoBlue and Cell Titer Glo, AKR1C3 expression: no data available, read-out: Absolute Qualified AC50. The method, boiled down:
as §1

The subject of assay [8] is NCI-H2286. As to conditions: Homo sapiens; NCI-H2286, 72 h, average of PrestoBlue and Cell Titer Glo; AKR1C3 0.9 TPM; read-out: Absolute Qualified AC50. The method in brief:
as §1

Assay [9] deals with NCI-H1435. The note with it: NCI-H1435, 72 h, average of PrestoBlue and Cell Titer Glo; AKR1C3 171.1 TPM; read-out: Absolute Qualified AC50. The method, boiled down: as §1
Assay [10] concerns LK2. The note with it: Homo sapiens, LK-2; LK2, 72 h, average of PrestoBlue and Cell Titer Glo; AKR1C3 1107 TPM; read-out: Absolute Qualified AC50. The method, boiled down:
as §1

Assay [11] concerns NCI-H2347. As to conditions: Homo sapiens; NCI-H2347, 72 h, average of PrestoBlue and Cell Titer Glo; AKR1C3 8.9 TPM; read-out: Absolute Qualified AC50. The method, boiled down:
as §1

The test system of assay [12] is NCI-H596. As to conditions: Homo sapiens; NCI-H596, 72 h, average of PrestoBlue and Cell Titer Glo; AKR1C3 265.6 TPM; read-out: Absolute Qualified AC50. The method, boiled down: as §1
Assay [13] concerns NCI-H1703. The note with it: Homo sapiens; NCI-H1703, 72 h, average of PrestoBlue and Cell Titer Glo; AKR1C3 3.2 TPM; read-out: Absolute Qualified AC50. The method, boiled down:
as §1

Assay [14] relates to CAL-12T. The note with it: Homo sapiens, 72 h, average of PrestoBlue and Cell Titer Glo, AKR1C3 23.6 TPM, read-out: Absolute Qualified AC50. The method in brief: as §1

Take `CN1c2ccc(F)cc2C(=O)CC12CCN(C(=O)NCc1ccc(F)c(NCCO)c1)CC2` [Example 36, 6′-fluoro-N-(4-fluoro-3-((2-hydroxyethyl)amino)benzyl)-1′-methyl-4′-oxo-3′,4′-dihydro-1′H-spiro[piperidine-4,2′-quinoline]-1-carboxamide]: the AC50 in assay [1] is 553 nM; in assay [2], over 1000 nM; in [3], over 1000 nM; in assay [4], over 1000 nM; in [5], over 1000 nM; in assay [6] it was over 1000 nM. For the same molecule, the AC50 in assay [7] is 474 nM; in assay [8] it was over 1000 nM; in assay [9] it was 478 nM; in [10], over 1000 nM; in assay [11], over 1000 nM; in assay [12] it was 754 nM. Moreover, the AC50 in assay [13] and in [14] was over 1000 nM each time.
Take `O=C1CC2(CCN(C(=O)NCc3ccc(F)cc3)CC2)Nc2ccc(F)cc21` [Example 40]: the AC50 was 196 nM in assay [1]; over 1000 nM in [2]; over 1000 nM in assay [3]; over 1000 nM in assay [4]; over 1000 nM in [5]; over 1000 nM in [6]. Moreover, the half-maximal activity concentration (AC50) in assay [7] was 330 nM; in assay [8], over 1000 nM; in [9] it was 273 nM; in assay [10], over 1000 nM; in assay [11], over 1000 nM; in assay [12], 334 nM. For the same molecule, the AC50 in assay [13] and in [14] was over 1000 nM in each case.

As a reminder, the AC50 is the concentration giving half of the maximal activity seen.
